Data from US6645736B2, “Calcium independent cytosolic phospholipase A2/B enzymes” (Genetics Institute, LLC, priority 1994, dated 2003).

Columns and labels:
[1] = target: T1, calcium independent cytosolic phospholipase A2/B (Cricetulus griseus, UniProt A0A3L7I2I8); assay: Phospholipase hydrolysis assays, format not specified; type: biochemical, Chinese hamster
T1 construct: purified from the cytosol of Chinese hamster ovary (CHO) cells; endogenous in cells; host or cells: CHO cells (cytosol; Mono P / heparin / size-exclusion fractions)
T1 sequence (A0A3L7I2I8 1-752 isoform A0A3L7I2I8-2): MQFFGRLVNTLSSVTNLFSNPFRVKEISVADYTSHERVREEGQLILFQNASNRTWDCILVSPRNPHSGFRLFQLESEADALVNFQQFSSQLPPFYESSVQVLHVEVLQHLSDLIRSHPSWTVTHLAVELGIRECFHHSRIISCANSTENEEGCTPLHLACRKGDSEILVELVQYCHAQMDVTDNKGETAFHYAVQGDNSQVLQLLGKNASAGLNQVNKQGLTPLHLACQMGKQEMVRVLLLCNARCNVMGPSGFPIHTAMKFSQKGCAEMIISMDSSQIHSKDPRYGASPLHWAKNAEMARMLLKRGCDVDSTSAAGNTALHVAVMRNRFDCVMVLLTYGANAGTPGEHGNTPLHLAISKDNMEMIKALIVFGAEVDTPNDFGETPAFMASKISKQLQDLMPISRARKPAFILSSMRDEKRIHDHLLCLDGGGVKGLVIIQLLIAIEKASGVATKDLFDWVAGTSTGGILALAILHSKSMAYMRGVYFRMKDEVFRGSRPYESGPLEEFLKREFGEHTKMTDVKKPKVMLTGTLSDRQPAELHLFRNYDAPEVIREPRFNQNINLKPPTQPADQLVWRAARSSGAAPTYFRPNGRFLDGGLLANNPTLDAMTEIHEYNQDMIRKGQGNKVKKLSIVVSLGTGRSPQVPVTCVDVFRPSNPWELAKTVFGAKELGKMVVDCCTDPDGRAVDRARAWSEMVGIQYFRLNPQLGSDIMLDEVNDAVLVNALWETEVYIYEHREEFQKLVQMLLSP
Procedure: 1. sn-2 Hydrolysis Assays
(§1) A) Liposome: The lipid, e.g. 1-palmitoyl-2-[^14C]arachidonyl-sn-glycero-3-phosphocholine (PAPC), 55 mCi/mmol, was dried under a stream of nitrogen and solubilized in ethanol. The assay buffer contained 100 mM Tris-HCl pH 7, 4 mM EDTA, 4 mM EGTA, 10% glycerol and 25 μM of labelled PAPC, where the volume of ethanol added was no more than 10% of the final assay volume. The reaction was incubated for 30 minutes at 37° C. and quenched by the addition of two volumes of heptane:isopropanol:0.5M sulfuric acid (105:20:1 v/v). Half of the organic was applied to a disposable silica gel column in a vacuum manifold positioned over a scintillation vial, and the free arachidonic was eluted by the addition of ethyl ether (1 ml). The level of radioactivity was measured by liquid scintillation.
B) Mixed Micelle Basic: The lipid was dried down as in (A) and to this was added the assay buffer consisting of 80 mM glycine pH 9, 5 mM CaCl2 or 5 mM EDTA, 10% or 70% glycerol and […] triton X-100. The mixture was then sonicated for 30-60 seconds at 4° C. to form mixed micelles.
C) Mixed Micelle Neutral: As for (B) except 100 mM Tris-HCl pH 7 was used instead of glycine as the buffer.
Sn-1 hydrolysis assays are performed as described above for […], but using phospholipids labelled at the sn-1 substituent, e.g. 1-[^14C]-palmitoyl-2-arachidonyl-sn-glycero-3-phophocholine.

[2] = target: T1, calcium independent cytosolic phospholipase A2/B; assay: Liposome assay (Example 3A); type: biochemical, Chinese hamster; conditions: assay of Example 3A (liposome)
Procedure: as §1, with “The reaction was incubated for 30 minutes at 37° C. and quenched by the addition of two volumes of heptane:isopropanol:0.5M sulfuric acid (105:20:1 v/v).” left out
Variations on this assay replace EDTA and EGTA with 10 mM CaCl2.

cPLA2 = target: T2, cPLA2 (Homo sapiens, UniProt P47712); conditions: comparison enzyme; cited from earlier work
T2 sequence (P47712 1-749): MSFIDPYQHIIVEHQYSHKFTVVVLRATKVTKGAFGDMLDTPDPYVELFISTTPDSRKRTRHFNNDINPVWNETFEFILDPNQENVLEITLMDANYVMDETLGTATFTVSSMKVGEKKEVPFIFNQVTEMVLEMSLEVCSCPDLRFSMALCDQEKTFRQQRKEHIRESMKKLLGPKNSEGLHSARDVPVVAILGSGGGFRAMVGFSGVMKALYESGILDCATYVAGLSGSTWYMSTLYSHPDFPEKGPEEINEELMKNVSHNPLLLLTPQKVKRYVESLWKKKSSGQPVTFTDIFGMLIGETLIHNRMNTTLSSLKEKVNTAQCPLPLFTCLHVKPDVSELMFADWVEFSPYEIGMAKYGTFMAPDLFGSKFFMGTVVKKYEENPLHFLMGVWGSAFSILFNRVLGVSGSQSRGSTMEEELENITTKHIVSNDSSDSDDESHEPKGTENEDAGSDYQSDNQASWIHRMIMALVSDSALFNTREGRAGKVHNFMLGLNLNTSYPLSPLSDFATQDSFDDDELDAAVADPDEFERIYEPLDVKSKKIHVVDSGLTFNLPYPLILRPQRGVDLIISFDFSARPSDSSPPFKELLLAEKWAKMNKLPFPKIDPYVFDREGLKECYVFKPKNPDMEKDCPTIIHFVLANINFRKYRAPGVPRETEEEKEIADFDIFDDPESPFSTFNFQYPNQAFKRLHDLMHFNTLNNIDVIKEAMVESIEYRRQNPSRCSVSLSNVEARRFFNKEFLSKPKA

## C[C@H](CCC(=O)NCCC[N+](C)(C)CCCS(=O)(=O)[O-])[C@H]1CC[C@H]2[C@@H]3[C@H](O)C[C@@H]4C[C@H](O)CC[C@]4(C)[C@H]3C[C@H](O)[C@]12C [CHAPS]
[1]
  inactivation of the enzyme by detergents: inactivated

## Nc1ncnc2c1ncn2[C@@H]1O[C@H](COP(=O)(O)OP(=O)(O)OP(=O)(O)O)[C@@H](O)[C@H]1O [adenosine triphosphate]
[2]
  effect on enzyme activity: not stimulated

## triton X-100
[2]
  effect on enzyme activity: suppressed

## [Ca+2] [calcium]
[1]; in all assays
  effect on enzyme activity: suppressed

## CCCCCCCCO[C@@H]1O[C@H](CO)[C@@H](O)[C@H](O)[C@H]1O [octyl glucoside]
[1]
  inactivation of the enzyme by detergents: inactivated

## NC(N)=O [urea]
[1]; high concentration denaturants
  denaturant concentration that inactivates the enzyme: above 3 M

B1: cPLA2: 110 kD calcium dependent cytosolic phospholipase A2 of U.S. Pat. No. 5,322,776 (protein, UniProt P47712 1-749, looked up)
Cytosolic phospholipase A2: MSFIDPYQHIIVEHQYSHKFTVVVLRATKVTKGAFGDMLDTPDPYVELFISTTPDSRKRTRHFNNDINPVWNETFEFILDPNQENVLEITLMDANYVMDETLGTATFTVSSMKVGEKKEVPFIFNQVTEMVLEMSLEVCSCPDLRFSMALCDQEKTFRQQRKEHIRESMKKLLGPKNSEGLHSARDVPVVAILGSGGGFRAMVGFSGVMKALYESGILDCATYVAGLSGSTWYMSTLYSHPDFPEKGPEEINEELMKNVSHNPLLLLTPQKVKRYVESLWKKKSSGQPVTFTDIFGMLIGETLIHNRMNTTLSSLKEKVNTAQCPLPLFTCLHVKPDVSELMFADWVEFSPYEIGMAKYGTFMAPDLFGSKFFMGTVVKKYEENPLHFLMGVWGSAFSILFNRVLGVSGSQSRGSTMEEELENITTKHIVSNDSSDSDDESHEPKGTENEDAGSDYQSDNQASWIHRMIMALVSDSALFNTREGRAGKVHNFMLGLNLNTSYPLSPLSDFATQDSFDDDELDAAVADPDEFERIYEPLDVKSKKIHVVDSGLTFNLPYPLILRPQRGVDLIISFDFSARPSDSSPPFKELLLAEKWAKMNKLPFPKIDPYVFDREGLKECYVFKPKNPDMEKDCPTIIHFVLANINFRKYRAPGVPRETEEEKEIADFDIFDDPESPFSTFNFQYPNQAFKRLHDLMHFNTLNNIDVIKEAMVESIEYRRQNPSRCSVSLSNVEARRFFNKEFLSKPKA
cPLA2
  pH optimum: greater than 8

B2: calcium independent phospholipase: 86 kD calcium independent cytosolic phospholipase enzyme purified from the cytosol of CHO cells, SEQ ID NO:2 (protein)
chain: MQFFGRLVNTLSSVTNLFSNPFRVKEISVADYTSHERVREEGQLILFQNASNRTWDCILVSPRNPHSGFRLFQLESEADALVNFQQFSSQLPPFYESSVQVLHVEVLQHLSDLIRSHPSWTVTHLAVELGIRECFHHSRIISCANSTENEEGCTPLHLACRKGDSEILVELVQYCHAQMDVTDNKGETAFHYAVQGDNSQVLQLLGKNASAGLNQVNKQGLTPLHLACQMGKQEMVRVLLLCNARCNVMGPSGFPIHTAMKFSQKGCAEMIISMDSSQIHSKDPRYGASPLHWAKNAEMARMLLKRGCDVDSTSAAGNTALHVAVMRNRFDCVMVLLTYGANAGTPGEHGNTPLHLAISKDNMEMIKALIVFGAEVDTPNDFGETPAFMASKISKQLQDLMPISRARKPAFILSSMRDEKRIHDHLLCLDGGGVKGLVIIQLLIAIEKASGVATKDLFDWVAGTSTGGILALAILHSKSMAYMRGVYFRMKDEVFRGSRPYESGPLEEFLKREFGEHTKMTDVKKPKVMLTGTLSDRQPAELHLFRNYDAPEVIREPRFNQNINLKPPTQPADQLVWRAARSSGAAPTYFRPNGRFLDGGLLANNPTLDAMTEIHEYNQDMIRKGQGNKVKKLSIVVSLGTGRSPQVPVTCVDVFRPSNPWELAKTVFGAKELGKMVVDCCTDPDGRAVDRARAWSEMVGIQYFRLNPQLGSDIMLDEVNDAVLVNALWETEVYIYEHREEFQKLVQMLLSP
[1]
  pH optimum: 6
[1]; PAPC with either palmitoyl or arachidonyl labelled with 14C
  initial rate of hydrolysis, sn-2 position higher than sn-1: 2-3 fold
